# Measured values reported in publication PMC3251615, “Effects of NK-4 in a Transgenic Mouse Model of Alzheimer's Disease” (PLoS ONE, 2012).
# Molecular target: T1, Beta-amyloid (Aβ) peptide Aβ1–40 (Homo sapiens, UniProt P05067)
# T1 construct: gene APP; Aβ1–40 (Aβ1–42 and Aβ25–35 also measured)
# Assay: Thioflavin T fibril formation assay on the isolated peptide, […] hr at […] °C; electron microscopy (Aβ[…] and Aβ[…])
# Format: biochemical
# T1 sequence (P05067 672-711 limits assumed): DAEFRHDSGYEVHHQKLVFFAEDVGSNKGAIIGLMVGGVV
smiles,measurement,value
"CCN1C=CC(=CC=C(C=Cc2cc[n+](CC)c3ccccc23)c2cc[n+](CC)c3ccccc23)c2ccccc21 [NK-4, 4,4′-[3-{2-(1-ethyl-4(1H)-quinolylidene)ethylidene}propenylene] bis(1-ethylquinolinium iodide)]",IC50,~10 µM
